# Test results reported in ChEMBL document CHEMBL1833873, “Design and synthesis of C35-fluorinated solamins and their growth inhibitory activities against human cancer cell lines” (2011).
# Columns and labels:
# Assay type in all cases: functional
# HCT-15 = experiment: Cytotoxicity against human HCT15 cells after 48 hrs by sulforhodamine B assay; settings: HCT-15, 48 h
# MKN-74 = experiment: Cytotoxicity against human MKN74 cells after 48 hrs by sulforhodamine B assay; settings: MKN-74, 48 h
# LOX IMVI = experiment: Cytotoxicity against human LOXIMVI cells after 48 hrs by sulforhodamine B assay
# SF-268 = experiment: Cytotoxicity against human SF268 cells after 48 hrs by sulforhodamine B assay; settings: SF-268, 48 h
# OVCAR-3 = experiment: Cytotoxicity against human OVCAR3 cells after 48 hrs by sulforhodamine B assay; settings: OVCAR-3, 48 h
# [1] = Cytotoxicity against human MKN1 cells after 48 hrs by sulforhodamine B assay; settings: MKN-1, 48 h
# [2] = Cytotoxicity against human HBC4 cells after 48 hrs by sulforhodamine B assay; settings: HBC4, 48 h
# HCC 2998 = experiment: Cytotoxicity against human HCC2998 cells after 48 hrs by sulforhodamine B assay; settings: HCC 2998, 48 h
# A549 = experiment: Cytotoxicity against human A549 cells after 48 hrs by sulforhodamine B assay; settings: A549, 48 h
# MCF7 = experiment: Cytotoxicity against human MCF7 cells after 48 hrs by sulforhodamine B assay; settings: MCF7, 48 h
# DU-145 = experiment: Cytotoxicity against human DU145 cells after 48 hrs by sulforhodamine B assay; settings: DU-145, 48 h
# OVCAR-4 = experiment: Cytotoxicity against human OVCAR4 cells after 48 hrs by sulforhodamine B assay; settings: OVCAR-4, 48 h
# U-251 = experiment: Cytotoxicity against human U251 cells after 48 hrs by sulforhodamine B assay; settings: U-251, 48 h
# ACHN = experiment: Cytotoxicity against human ACHN cells after 48 hrs by sulforhodamine B assay
# SNB-78 = experiment: Cytotoxicity against human SNB78 cells after 48 hrs by sulforhodamine B assay; settings: SNB-78, 48 h
# NCI-H226 = experiment: Cytotoxicity against human NCI-H226 cells after 48 hrs by sulforhodamine B assay; settings: NCI-H226, 48 h
# MKN-7 = experiment: Cytotoxicity against human MKN7 cells after 48 hrs by sulforhodamine B assay; settings: MKN-7, 48 h
# St-4 = experiment: Cytotoxicity against human St-4 cells after 48 hrs by sulforhodamine B assay; settings: St-4, 48 h
# SF-295 = experiment: Cytotoxicity against human SF295 cells after 48 hrs by sulforhodamine B assay; settings: SF-295, 48 h
# KM12 = experiment: Cytotoxicity against human KM12 cells after 48 hrs by sulforhodamine B assay; settings: KM12, 48 h
# DMS-273 = experiment: Cytotoxicity against human DMS273 cells after 48 hrs by sulforhodamine B assay; settings: DMS-273, 48 h
# [3] = Cytotoxicity against human BSY1 cells after 48 hrs by sulforhodamine B assay; settings: BSY-1, 48 h
# SNB-75 = experiment: Cytotoxicity against human SNB75 cells after 48 hrs by sulforhodamine B assay; settings: SNB-75, 48 h
# NCI-H23 = experiment: Cytotoxicity against human NCI-H23 cells after 48 hrs by sulforhodamine B assay; settings: NCI-H23, 48 h
# OVCAR-5 = experiment: Cytotoxicity against human OVCAR5 cells after 48 hrs by sulforhodamine B assay; settings: OVCAR-5, 48 h
# OVCAR-8 = experiment: Cytotoxicity against human OVCAR8 cells after 48 hrs by sulforhodamine B assay; settings: OVCAR-8, 48 h
# SK-OV-3 = experiment: Cytotoxicity against human SKOV3 cells after 48 hrs by sulforhodamine B assay; settings: SK-OV-3, 48 h
# NCI-H522 = experiment: Cytotoxicity against human NCI-H522 cells after 48 hrs by sulforhodamine B assay; settings: NCI-H522, 48 h
# [4] = Cytotoxicity against human RXF631L cells after 48 hrs by sulforhodamine B assay; settings: RXF 631, 48 h
# HCT-116 = experiment: Cytotoxicity against human HCT116 cells after 48 hrs by sulforhodamine B assay; settings: HCT-116, 48 h
# NCI-H460 = experiment: Cytotoxicity against human NCI-H460 cells after 48 hrs by sulforhodamine B assay; settings: NCI-H460, 48 h
# [5] = Cytotoxicity against human HBC5 cells after 48 hrs by sulforhodamine B assay; settings: HBC5, 48 h
# DMS-114 = experiment: Cytotoxicity against human DMS114 cells after 48 hrs by sulforhodamine B assay; settings: DMS-114, 48 h
# MDA-MB-231 = experiment: Cytotoxicity against human MDA-MB-231 cells after 48 hrs by sulforhodamine B assay; settings: MDA-MB-231, 48 h
# MKN-28 = experiment: Cytotoxicity against human MKN28 cells after 48 hrs by sulforhodamine B assay; settings: MKN-28, 48 h
# PC-3 = experiment: Cytotoxicity against human PC3 cells after 48 hrs by sulforhodamine B assay; settings: PC-3, 48 h
# MKN-45 = experiment: Cytotoxicity against human MKN45 cells after 48 hrs by sulforhodamine B assay; settings: MKN-45, 48 h
# SF-539 = experiment: Cytotoxicity against human SF539 cells after 48 hrs by sulforhodamine B assay; settings: SF-539, 48 h
# HT-29 = experiment: Cytotoxicity against human HT-29 cells after 48 hrs by sulforhodamine B assay; settings: HT-29, 48 h
SMILES,GI50 (HCT-15),GI50 (MKN-74),GI50 (LOX IMVI),GI50 (SF-268),GI50 (OVCAR-3),GI50 [1],GI50 [2],GI50 (HCC 2998),GI50 (A549),GI50 (MCF7),GI50 (DU-145),GI50 (OVCAR-4),GI50 (U-251),GI50 (ACHN),GI50 (SNB-78),GI50 (NCI-H226),GI50 (MKN-7),GI50 (St-4),GI50 (SF-295),GI50 (KM12),other results
CCCCCCCCCCCC[C@@H](O)[C@H]1CC[C@H]([C@H](O)CCCCCCCCCCCCC2=C[C@H](CF)OC2=O)O1,> 100 µM,40 µM,> 100 µM,> 100 µM,> 100 µM,58 µM,> 100 µM,> 100 µM,76 µM,45 µM,> 100 µM,> 100 µM,> 100 µM,> 100 µM,> 100 µM,51 µM,19 µM,37 µM,36 µM,> 100 µM,GI50 (DMS-273): 48 µM; GI50 [3]: 60 µM; GI50 (SNB-75): 63 µM; GI50 (NCI-H23): 12 µM; GI50 (OVCAR-5): > 100 µM; GI50 (OVCAR-8): 16 µM; GI50 (SK-OV-3): > 100 µM; GI50 (NCI-H522): 15 µM; GI50 [4]: > 100 µM; GI50 (HCT-116): 16 µM; GI50 (NCI-H460): 79 µM; GI50 [5]: 32 µM; GI50 (DMS-114): 6.9 µM; GI50 (MDA-MB-231): 59 µM; GI50 (MKN-28): 7.8 µM; GI50 (PC-3): 24 µM; GI50 (MKN-45): 76 µM; GI50 (SF-539): > 100 µM; GI50 (HT-29): 63 µM
CCCCCCCCCCCC[C@@H](O)[C@H]1CC[C@H]([C@H](O)CCCCCCCCCCCCC2=C[C@H](C(F)F)OC2=O)O1,82 µM,57 µM,15 µM,> 100 µM,> 100 µM,67 µM,32 µM,> 100 µM,> 100 µM,61 µM,> 100 µM,87 µM,> 100 µM,> 100 µM,> 100 µM,63 µM,19 µM,> 100 µM,44 µM,> 100 µM,GI50 (DMS-273): 16 µM; GI50 [3]: > 100 µM; GI50 (SNB-75): > 100 µM; GI50 (NCI-H23): 75 µM; GI50 (OVCAR-5): > 100 µM; GI50 (OVCAR-8): 85 µM; GI50 (SK-OV-3): > 100 µM; GI50 (NCI-H522): 24 µM; GI50 [4]: > 100 µM; GI50 (HCT-116): > 100 µM; GI50 (NCI-H460): > 100 µM; GI50 [5]: 11 µM; GI50 (DMS-114): 24 µM; GI50 (MDA-MB-231): > 100 µM; GI50 (MKN-28): 96 µM; GI50 (PC-3): 60 µM; GI50 (MKN-45): > 100 µM; GI50 (SF-539): 79 µM; GI50 (HT-29): > 100 µM
CCCCCCCCCCCC[C@@H](O)[C@H]1CC[C@H]([C@H](O)CCCCCCCCCCCCC2=C[C@H](C(F)(F)F)OC2=O)O1,> 100 µM,> 100 µM,> 100 µM,> 100 µM,> 100 µM,> 100 µM,> 100 µM,> 100 µM,> 100 µM,80 µM,> 100 µM,> 100 µM,> 100 µM,> 100 µM,> 100 µM,88 µM,89 µM,> 100 µM,72 µM,> 100 µM,GI50 (DMS-273): > 100 µM; GI50 [3]: > 100 µM; GI50 (SNB-75): > 100 µM; GI50 (NCI-H23): > 100 µM; GI50 (OVCAR-5): > 100 µM; GI50 (OVCAR-8): > 100 µM; GI50 (SK-OV-3): > 100 µM; GI50 (NCI-H522): 53 µM; GI50 [4]: > 100 µM; GI50 (HCT-116): > 100 µM; GI50 (NCI-H460): > 100 µM; GI50 [5]: > 100 µM; GI50 (DMS-114): 52 µM; GI50 (MDA-MB-231): > 100 µM; GI50 (MKN-28): > 100 µM; GI50 (PC-3): > 100 µM; GI50 (MKN-45): > 100 µM; GI50 (SF-539): > 100 µM; GI50 (HT-29): > 100 µM
CCCCCCCCCCCC[C@@H](O)[C@H]1CC[C@H]([C@H](O)CCCCCCCCCCCCC2=C[C@H](C)OC2=O)O1 [REL-SOLAMIN],> 100 µM,> 100 µM,29 µM,> 100 µM,> 100 µM,> 100 µM,> 100 µM,> 100 µM,> 100 µM,71 µM,> 100 µM,> 100 µM,> 100 µM,> 100 µM,> 100 µM,> 100 µM,13 µM,> 100 µM,40 µM,> 100 µM,GI50 (DMS-273): > 100 µM; GI50 [3]: > 100 µM; GI50 (SNB-75): > 100 µM; GI50 (NCI-H23): 73 µM; GI50 (OVCAR-5): > 100 µM; GI50 (OVCAR-8): > 100 µM; GI50 (SK-OV-3): > 100 µM; GI50 (NCI-H522): 58 µM; GI50 [4]: > 100 µM; GI50 (HCT-116): > 100 µM; GI50 (NCI-H460): > 100 µM; GI50 [5]: > 100 µM; GI50 (DMS-114): 4.3 µM; GI50 (MDA-MB-231): > 100 µM; GI50 (MKN-28): 14 µM; GI50 (PC-3): > 100 µM; GI50 (MKN-45): > 100 µM; GI50 (SF-539): > 100 µM; GI50 (HT-29): > 100 µM
